# From US6653081B2, “Methods for monitoring antiretroviral therapy and guiding therapeutic decision in the treatment of HIV/AIDS” (ViroLogic, Inc., priority 2000, dated 2003)
# Assays:
# RTV-1033-3/184V = assay: Phenotypic susceptibility assay, RTV-1033-3/184V; assay type: cell-based, HIV; conditions: RTV-1033-3 plus M184V
# Excerpt: (§1) The resistance test vectors containing a functional luciferase gene cassette were constructed and host cells were transfected with the resistance test vector DNA. The resistant test vectors contained patient-derived reverse transcriptase and protease sequences that were either susceptible or resistant to the antiretroviral agents, such as nucleoside reverse transcriptase inhibitors, (NRTIs) non-nucleoside reverse transcriptase inhibitors […] protease inhibitors. The resistance test vector viral particles produced by transfecting the resistance test vector DNA into host cells, either in the presence or absence of PRIs, were used to infect target host cells grown either in the absence of NRTIs or NNRTIs, or in the presence of increasing concentrations of the drug. The amount of luciferase activity produced in infected target host cells in the presence of varying concentrations of drug was compared to the amount of luciferase produced in infected target host cells in the absence of drug. “Drug resistance” was measured as the amount of drug required to inhibit by 50% the luciferase activity detected in the absence of drug (inhibitory concentration 50%, IC50). The IC50 values were determined by plotting percent drug inhibition vs. log10 drug concentration. Stimulation of viral replication was measured as the percent increase in luciferase activity detected when infection occurs in the presence of drug as compared to in the absence of drug.
# (§2) Host cells were seeded in 10-cm-diameter dishes and were transfected several days after plating with resistance test vector plasmid DNA and the envelope expression vector. Transfections were performed using a calcium-phosphate precipitation procedure. The cell culture media containing the DNA precipitate was replaced with fresh medium, from one to 24 hours, after transfection. Cell culture media containing resistance test vector viral particles was harvested one to four days after transfection and was passed through a […] filter before being used to infect target host cells, or being stored at −80° C. HIV capsid protein (p24) levels in the harvested cell culture media were determined by an EIA method as described by the manufacturer (SAIC; Frederick, Md.). Before infection, target cells (293 and 293/T) were plated in cell culture media. Control infections were performed using cell culture media from mock transfections (no DNA) or transfections containing the resistance test vector plasmid DNA without the envelope expression plasmid. One to three or more days after infection, the media was removed and cell lysis buffer (Promega) was added to each well. Cell lysates were assayed for luciferase activity (FIG. 3). The inhibitory effect of the drug was determined using the following equation:
# (§3) % luciferase inhibition=1−(RLUluc[drug]÷RLUluc)×100
# (§4) where RLUluc [drug] is the Relative Light Unit of luciferase activity in infected cells in the presence of drug, and RLUluc is the Relative Light Unit of luciferase activity in infected cells in the absence of drug. IC50values were obtained from the sigmoidal curves that were generated from the data by plotting the percent inhibition of luciferase activity vs. the log10 drug concentration. The percent luciferase stimulation is the negative of the % inhibition calculated using the formula above.
# (§5) A resistance test vector containing all of the mutations present in RTV-1033-3 in addition to M184V (RTV-1033-3/184V) was constructed and tested using the phenotypic assay described earlier. The results were compared to those determined using the parent RTV-1033-3. We determined the pattern of phenotypic susceptibility to the NNRTIs, delavirdine, nevirapine and efavirenz, in the mutated vector, RTV-1033-3/184V.
# viral load = assay: Viral load measurements in patient (Example 14); assay type: in vivo
# [1] = tested on: RTV-1033-3/283L/284R/286T; assay: Phenotypic susceptibility assay, RTV-1033-3/283L/284R/286T; assay type: cell-based, HIV; conditions: RTV-1033-3 with L283I, R284K and T286A reverted
# Excerpt: as §1, §2, §3, §4
# as §5, with “except for L283I, R284K and T286A (RTV-1033-3/283L/284R/286T)” for “in addition to M184V (RTV-1033-3/184V)”, “reverted” for “mutated”, “RTV-1033-3/283L/284R/286T.” for “RTV-1033-3/184V.”
# [2] = tested on: Patient-derived resistance test vectors containing mutations at 241 in addition to other NNRTI-resistance mutations; assay: Phenotypic susceptibility assay, patient-derived RTVs with mutations at 241; assay type: cell-based, HIV; conditions: 241 plus e.g. 101, 103, 106, 135, 138, 190
# Excerpt: The resistance test vectors containing a functional luciferase gene cassette were constructed and host cells were transfected with the resistance test vector DNA. The resistant test vectors contained patient-derived reverse transcriptase and protease sequences that were either susceptible or resistant to the antiretroviral agents, such as nucleoside reverse transcriptase inhibitors, (NRTIs) non-nucleoside reverse transcriptase inhibitors (NRTIs) and protease inhibitors. […] The IC50 values were determined by plotting percent drug inhibition vs. log10 drug concentration. Stimulation of viral replication was measured as the percent increase in luciferase activity detected when infection occurs in the presence of drug as compared to in the absence of drug.
# Host cells were seeded in 10-cm-diameter dishes and were transfected several days after plating with resistance test vector plasmid DNA and the envelope expression vector. […] HIV capsid protein (p24) levels in the harvested cell culture media were determined by an EIA method as described by the manufacturer (SAIC; Frederick, Md.). […] The inhibitory effect of the drug was determined using the following equation: […]
# P236L substitution RT = P236L substitution RT (Human immunodeficiency virus type 1 group M subtype B, UniProt P04585, P823L); conditions: cited from earlier work
# codon 181 mutant HIV-1 = conditions: cited from earlier work
# RTV-010829/270I = assay: Phenotypic susceptibility assay, RTV-010829/270I; assay type: cell-based, HIV; conditions: RTV-010829 with I270M reverted
# Excerpt: as §1, §2, §3, §4
# A resistance test vector containing all of the mutations present in RTV-010829 except for the V245E mutation (RTV-010829/245V) was constructed and tested using the phenotypic assay described earlier. The results were compared to those determined using the parent RTV-010829. We determined the pattern of phenotypic susceptibility to the NNRTIs, delavirdine, nevirapine and efavirenz, in the reverted vector RTV-010829/245V. […] A resistance test vector containing all of the mutations present in RTV-010829 except for the I270M (RTV-010829/270I) was constructed and tested using the phenotypic assay described earlier. […]
Compound,drug-dependent stimulation of viral replication (RTV-1033-3/184V) [%],reduction in susceptibility compared to wild type control RTV (RTV-1033-3/184V) [fold],"viral load after removal of nevirapine from the regimen (viral load; patient on d4T, nevirapine, nelfinavir, saquinavir, baseline ~1,200,000 copies/ml)",reduction in viral load after removal of nevirapine from the regimen (viral load; same patient) [fold],drug-dependent stimulation of viral replication [1] [%],reductions in susceptibility compared to wild type control RTV [1] [fold],reductions in susceptibility [2] [fold],reduction of the IC50 (P236L substitution RT),reduction in sensitivity (codon 181 mutant HIV-1; Y181C mutation) [fold],drug-dependent stimulation of viral replication (RTV-010829/270I) [%],reductions in susceptibility compared to wild type control RTV (RTV-010829/270I) [fold],susceptibility / activity in the presence of the Y181C mutation (codon 181 mutant HIV-1)
Cc1ccnc2c1NC(=O)c1cccnc1N2C1CC1 [nevirapine],~100,> 600,"< 300,000 copies/ml",4,~80,> 600,> 600,7- to 10 fold,100,~30,341,–
CC(C)Nc1cccnc1N1CCN(C(=O)c2cc3cc(NS(C)(=O)=O)ccc3[nH]2)CC1 [delavirdine],~100,5,–,–,~40,7,–,–,–,~40,247,–
O=C1Nc2ccc(Cl)cc2[C@@](C#CC2CC2)(C(F)(F)F)O1 [efavirenz],~80,28,–,–,~30,85,> 470,–,–,~20,145,retains activity
